Data reported in ChEMBL document CHEMBL3861963, “Hypocriols A-F, Heterodimeric Botryane Ethers from Hypocrea sp., an Insect-Associated Fungus” (J Nat Prod, 2016).

Legend:
Format in all cases: functional, cell-based
[1] = Antiproliferative activity against human A549 cells measured after 24 hrs by CCK8 assay; conditions: A549, 24 h
[2] = Antiproliferative activity against human HCT116 cells measured after 24 hrs by CCK8 assay; conditions: HCT-116, 24 h
[3] = Antiproliferative activity against human MCF7 cells measured after 24 hrs by CCK8 assay; conditions: MCF7, 24 h
[4] = Antiproliferative activity against human HeLa cells measured after 24 hrs by CCK8 assay

| Structure (SMILES) | IC50 [1] [µM] | IC50 [2] [µM] | IC50 [3] [µM] | IC50 [4] [µM] |
| --- | --- | --- | --- | --- |
| CC(=O)O[C@H]1C[C@@H](C)[C@@H]2[C@@H](O)[C@H](O[C@H]3OC[C@@]4(C)CC(C)(C)c5ccc(C)c3c54)[C@@]3(C)CC(C)(C)[C@H]1[C@]23O | 25.3 | 18.6 | 19.7 | 7.7 |
| CC(=O)O[C@H]1C[C@@H](C)[C@@H]2[C@@H](OCc3c(C)ccc4c3[C@@](C)(CO)CC4(C)C)OC[C@@]3(C)CC(C)(C)[C@H]1[C@]23O | 15.3 | 2.7 | 23.6 | 4.6 |
| CC(=O)O[C@H]1C[C@@H](C)[C@@H]2[C@@H](OC3OC[C@@]4(C)CC(C)(C)c5ccc(C)c3c54)[C@H](O)[C@@]3(C)CC(C)(C)[C@H]1[C@]23O (some centres undefined) | – | – | – | 3.1 |
| CO[C@H]1O[C@@H](O[C@H]2[C@H](O)[C@H]3[C@H](C)C[C@H](OC(C)=O)[C@H]4C(C)(C)C[C@@]2(C)[C@@]34O)[C@@]2(C)CC(C)(C)c3ccc(C)c1c32 | 46.7 | 18.8 | 34.2 | 3.8 |
| CC(=O)O[C@H]1C[C@@H](C)[C@@H]2[C@@H](OC[C@@]3(C)CC(C)(C)c4ccc(C)c(CO)c43)OC[C@@]3(C)CC(C)(C)[C@H]1[C@]23O | – | 23 | 48.3 | 43.6 |
| CC(=O)O[C@H]1C[C@@H](C)[C@@H]2[C@@H](O)[C@H](O[C@@H]3OC[C@@]4(C)CC(C)(C)c5ccc(C)c3c54)[C@@]3(C)CC(C)(C)[C@H]1[C@]23O | – | 17.5 | 48.3 | 11.8 |
